Assay results published in ChEMBL document CHEMBL1201862, “PubChem BioAssay data set” (2004).
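96-well plates; 48 h exposure; 5 concentrations. Endpoints by linear interpolation between flanking doses. Not reached: highest tested concentration assigned. Abbreviation: GI50, concentration required for 50% inhibition of growth.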 Activity calls are given as the source filed them. Rule as the data show it: active = GI50 up to about 1.1 µM and inactive = higher.

What was measured:
Test in all cases: NCI tumour cell line growth inhibition, 48 h
SNB-19 = system: SNB-19
HOP-92 = system: HOP-92
NCI-H522 = system: NCI-H522
SK-MEL-2 = system: SK-MEL-2
OVCAR-3 = system: OVCAR-3
NCI-H226 = system: NCI-H226
MDA-N = system: MDA-N
SK-OV-3 = system: SK-OV-3
MOLT-4 = system: MOLT-4
OVCAR-4 = system: OVCAR-4
U-251 = system: U-251
SF-268 = system: SF-268
HOP-62 = system: HOP-62
A498 = system: A498
COLO 205 = system: COLO 205
UACC-62 = system: UACC-62
UO-31 = system: UO-31
LOX IMVI = system: LOX IMVI
TK-10 = system: TK-10

Measured: GI50

O=c1c2cc(-c3ccccc3)cnc2sn1-c1ccc([N+](=O)[O-])cc1
inactive: SNB-19 25.4 µM | HOP-92 20.6 µM | NCI-H522 22.1 µM | SK-MEL-2 35.6 µM | OVCAR-3 16.9 µM | NCI-H226 44.5 µM | MDA-N 60.4 µM | SK-OV-3 26.9 µM | MOLT-4 71.3 µM | OVCAR-4 39 µM | U-251 21.6 µM | SF-268 48.2 µM | HOP-62 26.5 µM | A498 23.7 µM | COLO 205 > 100 µM | UACC-62 17.7 µM | UO-31 40 µM

CC[C@@H](O)C[C@H]1CCC[C@@]2(C[C@@H]3OC(=O)/C=C/[C@@](C)(O)[C@@H](O)[C@H](C)[C@@H](O)[C@H](OC4CCC(N(C)C)C(C)O4)[C@@H](O)[C@](C)(O)CCCCC/C=C/[C@@H]4CC(C)(C)O[C@@]4(O)C[C@H](O2)[C@H]3C)O1 (some centres not stated)
active: NCI-H522 < 0.01 µM | U-251 < 0.01 µM | COLO 205 < 0.01 µM | UO-31 < 0.0388 µM
inactive: LOX IMVI 1.82 µM | HOP-92 13.7 µM | SK-MEL-2 10.5 µM | OVCAR-3 12.9 µM | MDA-N 2.96 µM | SK-OV-3 14.6 µM | MOLT-4 1.91 µM | OVCAR-4 5.2 µM | SF-268 15.7 µM | HOP-62 13.4 µM | A498 19.9 µM | UACC-62 6.37 µM

O=C(COc1ccc(OCC(=O)N2C(=O)CC(=O)N(c3ccc(Cl)cc3)C2=S)cc1)N1C(=O)CC(=O)N(c2ccc(Cl)cc2)C1=S
inactive: SNB-19 26.9 µM | HOP-92 20.7 µM | NCI-H522 17 µM | SK-MEL-2 26.3 µM | NCI-H226 26.6 µM | MDA-N 28.1 µM | SK-OV-3 35.4 µM | MOLT-4 17.9 µM | OVCAR-4 33.6 µM | U-251 33.3 µM | SF-268 40.4 µM | A498 47.3 µM | TK-10 37.3 µM | COLO 205 18.2 µM | UACC-62 16.8 µM | UO-31 31.7 µM

Cc1ccc(C)c(NC(=O)C(Cc2c[nH]c3ccccc23)NC(=O)OCc2ccccc2)c1 (configuration not stated)
inactive: LOX IMVI 37.3 µM | SNB-19 13.8 µM | HOP-92 17.2 µM | NCI-H522 16.1 µM | SK-MEL-2 16 µM | OVCAR-3 29.7 µM | MDA-N 29.3 µM | SK-OV-3 20.1 µM | MOLT-4 4.52 µM | OVCAR-4 5.12 µM | U-251 17.1 µM | SF-268 26.4 µM | HOP-62 48.8 µM | A498 35.6 µM | TK-10 15.3 µM | COLO 205 13.2 µM | UACC-62 15.9 µM | UO-31 15.4 µM

CC(=O)Oc1ccc2ccc(=O)oc2c1OC(C)=O
inactive: LOX IMVI 21.3 µM | SNB-19 32.6 µM | HOP-92 64.3 µM | NCI-H522 39.5 µM | SK-MEL-2 > 100 µM | OVCAR-3 29.9 µM | MDA-N 49.8 µM | SK-OV-3 73.1 µM | MOLT-4 33.3 µM | OVCAR-4 35 µM | U-251 50.2 µM | SF-268 27.8 µM | HOP-62 29.5 µM | A498 > 100 µM | TK-10 78.2 µM | COLO 205 24.4 µM | UACC-62 43.9 µM | UO-31 30.1 µM

O=C(NC(Cc1c[nH]cn1)C(=O)N1CCCC1)C1CCCC1 (configuration not stated)
inactive: LOX IMVI > 100 µM | SNB-19 > 100 µM | HOP-92 > 100 µM | NCI-H522 > 100 µM | OVCAR-3 > 100 µM | NCI-H226 > 100 µM | MDA-N > 100 µM | SK-OV-3 > 100 µM | MOLT-4 > 100 µM | OVCAR-4 > 100 µM | U-251 > 100 µM | HOP-62 > 100 µM | A498 37.9 µM | TK-10 > 100 µM | COLO 205 > 100 µM | UACC-62 > 100 µM | UO-31 > 100 µM
